Assay results reported in patent publication US20150111781A1, “ANALYZING SEMAPHORIN7A (Sema7A) LEVELS FOR ASSESSING CANCER METASTATIC POTENTIAL” (Florida Atlantic University, priority 2012, published 2015).

Test system: MCF-10A cells
Experiment: TGF-β1 induction of Sema7A gene expression by qRT-PCR
Type: cell-based, human
Conditions: 5 ng/ml, within 18 hours, vs vehicle
Protocol: We then wanted to establish an in vitro system to study the functional role of Sema7A in the breast epithelia. To do so, we assayed the Sema7A expression in human breast cell lines with varying degrees of malignancy using quantitative real-time PCR (qRT-PCR).
We treated MCF-10A cells with 5 ng/ml of TGF-β1 or vehicle for 18, 24 or 36 hours. MCF-10A cells were then assayed for Sema7A gene expression by qRT-PCR. […] TGF-β1 is a key inducer of epithelial to mesenchymal transition (EMT) and Sema7A could serve as a down-stream effecter of TGF-β1 in EMT.

Substance: TGF-β1: Transforming growth factor beta-1, used to induce Sema7A expression in MCF-10A breast epithelial cells
- expression of Sema7A: significantly increased
